Assay results reported in patent publication US6525059B1, “Substituted pyrazoles as p38 kinase inhibitors” (G. D. Searle & Company, priority 1998, dated 2003).

target: T1, human p38 kinase alpha (Homo sapiens, UniProt Q16539); test: p38 kinase in vitro assay, phosphorylation of biotinylated PHAS-I with gamma 32P-ATP; format: biochemical; details: @ 1.0 uM
T1 construct: The coding region of the human p38a cDNA was obtained by PCR-amplification from RNA isolated from the human monocyte cell line THP.1; GST (N); made in house; host or cells: E. coli DH10B
Experimental: The ability of compounds to inhibit human p38 kinase alpha was evaluated using two in vitro assay methods. In the first method activated human p38 kinase alpha phosphorylates a biotinylated substrate, PHAS-I (phosphorylated heat and acid stable protein-insulin inducible), in the presence of gamma ^32P-ATP (^32P-ATP). PHAS-I was biotinylated prior to the assay and provides a means of capturing the substrate which is phosphorylated during the assay. p38 Kinase was activated by MKK6. Compounds were tested in 10 fold serial dilutions over the range of 100 μM to 0.001 μM using 1% DMSO. Each concentration of inhibitor was tested in triplicate.
All reactions were carried out in 96 well polypropylene plates. Each reaction well contained 25 mM HEPES pH 7.5, 10 mM magnesium acetate and 50 μM unlabeled ATP. […] The reaction proceeded either for one hour or overnight at 30° C.
Following incubation, 20 μl of reaction mixture was transferred to a high capacity streptavidin coated filter plate (SAM-streptavidin-matrix, Promega) prewetted with phosphate buffered saline. […] Filter plates were air dried and 20 μl of scintillant was added. The plates were sealed and counted.

T1 sequence (Q16539 whole entry): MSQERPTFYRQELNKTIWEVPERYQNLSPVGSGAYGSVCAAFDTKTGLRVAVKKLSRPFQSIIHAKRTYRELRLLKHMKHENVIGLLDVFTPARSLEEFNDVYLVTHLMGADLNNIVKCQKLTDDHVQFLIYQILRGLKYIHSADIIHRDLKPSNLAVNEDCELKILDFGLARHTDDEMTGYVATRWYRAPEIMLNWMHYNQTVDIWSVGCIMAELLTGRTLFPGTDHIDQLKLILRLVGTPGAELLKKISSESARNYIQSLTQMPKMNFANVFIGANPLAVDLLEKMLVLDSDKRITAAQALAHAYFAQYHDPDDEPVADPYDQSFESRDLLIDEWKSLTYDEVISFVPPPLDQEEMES

First: O=C(NCc1[nH]nc(-c2ccc(F)cc2)c1-c1ccncc1)[C@@H]1C[C@@H]1c1ccccc1 [Example B-0002]
Second: CCC(C(=O)NCc1[nH]nc(-c2ccc(F)cc2)c1-c1ccncc1)c1ccccc1 (centres unmarked) [Example B-0048]
The “P38 alpha kinase % inhib @ conc.” value of the first is lower: 71.1% @ 1.0 uM for the first, 94.0% @ 1.0 uM for the second.

Going from `O=C(NCc1[nH]nc(-c2ccc(F)cc2)c1-c1ccncc1)C(F)(F)C(F)(F)C(F)(F)F` [Example B-0046] to `N#Cc1ccc(C(=O)NCc2[nH]nc(-c3ccc(F)cc3)c2-c2ccncc2)cc1` [Example B-0001], the “P38 alpha kinase % inhib @ conc.” value falls from 96.0% @ 1.0 uM to 53.0% @ 1.0 uM.

With `O=C(NCc1[nH]nc(-c2ccc(F)cc2)c1-c1ccncc1)c1cccc2ccccc12` [Example B-0037] the “P38 alpha kinase % inhib @ conc.” value was 91.0% @ 1.0 uM.

same assay, conditions: @ 1.0 uM; read-out: P38 alpha kinase % inhib @ conc.

Going from `Cc1cc(C)c(S(=O)(=O)NCc2[nH]nc(-c3ccc(F)cc3)c2-c2ccncc2)c(C)c1` [Example B-0109] to `Cc1cc(C)c(C(=O)NCc2[nH]nc(-c3ccc(F)cc3)c2-c2ccncc2)c(C)c1` [Example B-0049], the inhibition at 1 µM rises from 45% to 88%.

Going from `COC(=O)c1ccc(C(=O)NCc2[nH]nc(-c3ccc(F)cc3)c2-c2ccncc2)cc1` [Example B-0082] to `O=C(NCc1[nH]nc(-c2ccc(F)cc2)c1-c1ccncc1)c1ccccc1` [Example B-0063], the inhibition at 1 µM rises from 47% to 96%.

Compared with `O=C(NCc1[nH]nc(-c2ccc(F)cc2)c1-c1ccncc1)c1ccc(C(F)(F)F)cc1F` [Example B-0061], `COc1ccc(C(=O)NCc2[nH]nc(-c3ccc(F)cc3)c2-c2ccncc2)c(OC)c1` [Example B-0086] is higher in inhibition at 1 µM: 62% for the first, 91% for the second.

First: COc1cccc(OC)c1C(=O)NCc1[nH]nc(-c2ccc(F)cc2)c1-c1ccncc1 [Example B-0070]
Second: O=C(NCc1[nH]nc(-c2ccc(F)cc2)c1-c1ccncc1)c1ccno1 [Example B-0054]
The inhibition at 1 µM of the first is higher: 92% for the first, 90% for the second.

`O=C(OCc1ccccc1C(=O)NCc1[nH]nc(-c2ccc(F)cc2)c1-c1ccncc1)c1ccccc1` [Example B-0092] and `O=[N+]([O-])c1ccccc1CS(=O)(=O)NCc1[nH]nc(-c2ccc(F)cc2)c1-c1ccncc1` [Example B-0112] are the same in inhibition at 1 µM: 97% for the first, 97% for the second.

Compared with `O=S(=O)(NCc1[nH]nc(-c2ccc(F)cc2)c1-c1ccncc1)c1cccs1` [Example B-0121], `O=S(=O)(NCc1[nH]nc(-c2ccc(F)cc2)c1-c1ccncc1)c1ccccc1F` [Example B-0133] is lower in inhibition at 1 µM: 79% for the first, 51% for the second.

Going from `O=[N+]([O-])c1ccccc1S(=O)(=O)NCc1[nH]nc(-c2ccc(F)cc2)c1-c1ccncc1` [Example B-0113] to `O=S(=O)(NCc1[nH]nc(-c2ccc(F)cc2)c1-c1ccncc1)c1ccc(Cl)c(Cl)c1` [Example B-0135], the inhibition at 1 µM rises from 75% to 78%.

With `C=CCNC(=O)NCc1[nH]nc(-c2ccc(F)cc2)c1-c1ccncc1` [Example B-0170] the inhibition at 1 µM was 43%.

same assay, conditions: @ 10.0 uM; read-out: P38 alpha kinase % inhib @ conc.

Compared with `O=C(NCc1[nH]nc(-c2ccc(F)cc2)c1-c1ccncc1)Nc1cccc(Cl)c1Cl` [Example B-0192], `COc1cccc(NC(=O)NCc2[nH]nc(-c3ccc(F)cc3)c2-c2ccncc2)c1` [Example B-0160] is higher in inhibition at 10 µM: 12% for the first, 59% for the second.

Going from `CC(NC(=O)NCc1[nH]nc(-c2ccc(F)cc2)c1-c1ccncc1)c1cccc2ccccc12` (centres unmarked) [Example B-0184] to `O=C(NCc1[nH]nc(-c2ccc(F)cc2)c1-c1ccncc1)Nc1ccc(-c2ccccc2)cc1` [Example B-0180], the inhibition at 10 µM falls from 66% to 34%.

Going from `CC(C)c1ccc(NC(=O)NCc2[nH]nc(-c3ccc(F)cc3)c2-c2ccncc2)cc1` [Example B-0178] to `CCOC(=O)C(NC(=O)NCc1[nH]nc(-c2ccc(F)cc2)c1-c1ccncc1)C(C)C` (centres unmarked) [Example B-0188], the inhibition at 10 µM rises from 12% to 70%.

same assay, conditions: activated human p38 kinase alpha, PHAS-I substrate, 50 μM unlabeled ATP; read-out: p38 kinase IC50

Work on `Cc1n[nH]c(-c2ccccc2O)c1-c1ccncc1` [Example A-16] yielded an IC50 of 3800 nM.

same assay, conditions: p38α in vitro, PHAS-I assay procedure; read-out: p38^1 IC50

Going from `O=C(O)CNc1[nH]nc(-c2ccc(F)cc2)c1-c1ccncc1` [Example A-293, N-[5-(4-fluorophenyl)-4-(4-pyridinyl)-1H-pyrazol-3-yl]glycine] to `OCCn1cc(-c2ccnc(NCc3ccc(F)cc3)c2)c(-c2ccc(F)cc2)n1` [Example A-283, 3 (or 5)-(4-fluorophenyl)-4-[2-[[(4-fluorophenyl)methyl]amino]-4-pyridinyl]-1H-pyrazole-1-ethanol], the IC50 falls from 730 nM to less than 100 nM.

Work on `Fc1ccc(CNc2cc(-c3cn(CCN4CCOCC4)nc3-c3ccc(F)cc3)ccn2)cc1` [Example A-285, N-[(4-fluorophenyl)methyl]-4-[3-(4-fluorophenyl)-1-[2-(4-morpholinyl)ethyl]-1H-pyrazol-4-yl]-2-pyridinamine] yielded an IC50 of less than 100 nM.

same assay, conditions: read-out: P38 alpha kinase IC50

First: O=C(NCc1[nH]nc(-c2ccc(F)cc2)c1-c1ccncc1)c1ccc(C(F)(F)F)cc1F [Example B-0283]
Second: O=C(NCc1[nH]nc(-c2ccc(F)cc2)c1-c1ccncc1)c1cc(F)ccc1F [Example B-0295]
The IC50 of the first is 8.1-fold higher: 6660 nM for the first, 820 nM for the second.

First: C[C@@H](NS(=O)(=O)c1cccc2c(N(C)C)cccc12)c1[nH]nc(-c2ccc(F)cc2)c1-c1ccncc1 [Example B-0444]
Second: CCc1ccc(S(=O)(=O)N[C@H](C)c2[nH]nc(-c3ccc(F)cc3)c2-c2ccncc2)cc1 [Example B-0460]
The IC50 of the first is 17-fold higher: 1010 nM for the first, 61 nM for the second. The second is the more potent here.

Compared with `COCC(=O)N[C@H](C)c1[nH]nc(-c2ccc(F)cc2)c1-c1ccncc1` [Example B-0366], `CC(=O)NC(C)c1[nH]nc(-c2ccc(F)cc2)c1-c1ccncc1` (centres unmarked) [Example B-0536] is 1.5-fold lower in IC50: 700 nM for the first, 460 nM for the second. The second is the more potent here.

Compared with `Cc1ccc(C)c(S(=O)(=O)NCc2[nH]nc(-c3ccc(F)cc3)c2-c2ccncc2)c1` [Example B-0244], `O=S(=O)(NCc1[nH]nc(-c2ccc(F)cc2)c1-c1ccncc1)c1cccc(Cl)c1` [Example B-0239] is 290-fold higher in IC50: 20 nM for the first, 5730 nM for the second.

First: CC(NC(=O)c1cccc(C(F)(F)F)c1)c1[nH]nc(-c2ccc(F)cc2)c1-c1ccncc1 (centres unmarked) [Example B-0672]
Second: COc1cccc(C(=O)N[C@H](C)c2[nH]nc(-c3ccc(F)cc3)c2-c2ccncc2)c1 [Example B-0380]
The IC50 of the first is 4.7-fold higher: 6590 nM for the first, 1410 nM for the second.

First: C[C@@H](NS(=O)(=O)c1ccc(Cl)s1)c1[nH]nc(-c2ccc(F)cc2)c1-c1ccncc1 [Example B-0473]
Second: C[C@@H](NS(=O)(=O)c1ccc(-c2ccon2)s1)c1[nH]nc(-c2ccc(F)cc2)c1-c1ccncc1 [Example B-0485]
The IC50 of the first is 10-fold lower: 4 nM for the first, 40 nM for the second.

`O=C(NCc1[nH]nc(-c2ccc(F)cc2)c1-c1ccncc1)c1ccccc1F` [Example B-0297] and `O=C(NCc1[nH]nc(-c2ccc(F)cc2)c1-c1ccncc1)c1cccc(F)c1F` [Example B-0293] are within 1.5-fold of each other in IC50: 780 nM for the first, 660 nM for the second.

Going from `C[C@@H](NS(=O)(=O)c1cc(Cl)ccc1Cl)c1[nH]nc(-c2ccc(F)cc2)c1-c1ccncc1` [Example B-0438] to `C[C@@H](NS(=O)(=O)c1ccc(Cl)cc1Cl)c1[nH]nc(-c2ccc(F)cc2)c1-c1ccncc1` [Example B-0448], the IC50 rises from less than 100 nM to 400 nM. The first is the more potent here.

First: Cc1cc(C)c(C(=O)NCc2[nH]nc(-c3ccc(F)cc3)c2-c2ccncc2)c(C)c1 [Example B-0280]
Second: Cc1cc(C)c(C(=O)N[C@H](C)c2[nH]nc(-c3ccc(F)cc3)c2-c2ccncc2)c(C)c1 [Example B-0505]
The IC50 of the first is 3.1-fold higher: 860 nM for the first, 280 nM for the second.

First: C[C@@H](NC(=O)c1ccc(Cl)cc1Cl)c1[nH]nc(-c2ccc(F)cc2)c1-c1ccncc1 [Example B-0516]
Second: C[C@@H](NC(=O)c1ccc(F)c(F)c1F)c1[nH]nc(-c2ccc(F)cc2)c1-c1ccncc1 [Example B-0369]
The IC50 of the first is 2.3-fold higher: 370 nM for the first, 160 nM for the second. The second is the more potent here.

Compared with `CC(NS(=O)(=O)c1ccc(-c2ccccc2)cc1)c1[nH]nc(-c2ccc(F)cc2)c1-c1ccncc1` (centres unmarked) [Example B-0658], `Cc1ccc(S(C)(=O)=O)cc1S(=O)(=O)N[C@H](C)c1[nH]nc(-c2ccc(F)cc2)c1-c1ccncc1` [Example B-0491] is 2.7-fold lower in IC50: 1140 nM for the first, 430 nM for the second. The second is the more potent here.

First: CC(NC(=O)c1cc(F)cc(F)c1)c1[nH]nc(-c2ccc(F)cc2)c1-c1ccncc1 (centres unmarked) [Example B-0679]
Second: C[C@@H](NC(=O)c1cccc(C(F)(F)F)c1F)c1[nH]nc(-c2ccc(F)cc2)c1-c1ccncc1 [Example B-0510]
The IC50 of the first is 11-fold lower: 62 nM for the first, 690 nM for the second. The first is the more potent here.

Compared with `NC(=O)NC(Cc1ccccc1)c1[nH]nc(-c2ccc(F)cc2)c1-c1ccncc1` (centres unmarked) [Example B-0724], `CCS(=O)(=O)NC(Cc1ccccc1)c1[nH]nc(-c2ccc(F)cc2)c1-c1ccncc1` (centres unmarked) [Example B-0717] is 72-fold higher in IC50: 60 nM for the first, 4300 nM for the second.

Going from `CCCS(=O)(=O)N[C@H](C)c1[nH]nc(-c2ccc(F)cc2)c1-c1ccncc1` [Example B-0393] to `CC(NS(=O)(=O)CC12CCC(CC1=O)C2(C)C)c1[nH]nc(-c2ccc(F)cc2)c1-c1ccncc1` (centres unmarked) [Example B-0435], the IC50 rises from 43 nM to 300 nM (7-fold).

Going from `CC(Oc1ccccc1)C(=O)N[C@H](C)c1[nH]nc(-c2ccc(F)cc2)c1-c1ccncc1` (some centres unmarked) [Example B-0381] to `Cc1cccc(C(=O)NCc2[nH]nc(-c3ccc(F)cc3)c2-c2ccncc2)c1` [Example B-0290], the IC50 rises from 220 nM to 660 nM (3-fold). The first is the more potent here.

Compared with `N#Cc1ccc(S(=O)(=O)NCc2[nH]nc(-c3ccc(F)cc3)c2-c2ccncc2)cc1` [Example B-0254], `CC1(C)C2CCC1(CS(=O)(=O)NCc1[nH]nc(-c3ccc(F)cc3)c1-c1ccncc1)C(=O)C2` (centres unmarked) [Example B-0227] is 2.7-fold lower in IC50: 120 nM for the first, 45 nM for the second. The second is the more potent here.
